The experiment addresses human orexin-2 receptor (Homo sapiens (Human), UniProt O43614). Briefly: radioligand binding assay, hOX2 Bind. The settings on record: membranes prepared from CHO cells expressing the OX2 receptor; read-out: hOX2 Bind hKi. As to the method: The utility of the compounds in accordance with the present invention as orexin receptor OX1R and/or OX2R antagonists may be readily determined without undue experimentation by methodology well known in the art, including the “FLIPR Ca^2+ Flux Assay” (Okumura et al., Biochem. Biophys. Res. Comm. 280:976-981, 2001). In a typical experiment the OX1 and OX2 receptor antagonistic activity of the compounds of the present invention was determined in accordance with the following experimental method. For intracellular calcium measurements, Chinese hamster ovary (CHO) cells expressing the rat orexin-1 receptor or the human orexin-2 receptor, are grown in Iscove's modified DMEM containing 2 mM L-glutamine, […], 1% hypoxanthine-thymidine supplement, 100 U/ml penicillin, 100 μg/ml streptomycin and 10% heat-inactivated fetal calf serum (FCS). The cells are seeded at 20,000 cells/well into Becton-Dickinson black 384-well clear bottom sterile plates coated with poly-D-lysine. All reagents were from GIBCO-Invitrogen Corp. The seeded plates are incubated overnight at 37° C. and 5% CO2. […] Within the Fluorescent Imaging Plate Reader (FLIPR, Molecular Devices), test compounds are added to the plate in a volume of […] for 5 min and finally 25 μl of agonist is added. Fluorescence is measured for each well at 1 second intervals for 5 minutes and the height of each fluorescence peak is compared to the height of the fluorescence peak induced by 70 pM Ala-6,12 orexin-A with buffer in place of antagonist. […] Alternatively, compound potency can be assessed by a radioligand binding assay (described in Bergman et. al. Bioorg. Med. Chem. Lett. 2008, 18, 1425-1430) in which the inhibition constant (Ki) is determined in membranes prepared from CHO cells expressing either the OX1 or OX2 receptor. The intrinsic orexin receptor antagonist activity of a compound which may be used in the present invention may be determined by these assays. […]
Chain of human orexin-2 receptor (O43614 whole entry): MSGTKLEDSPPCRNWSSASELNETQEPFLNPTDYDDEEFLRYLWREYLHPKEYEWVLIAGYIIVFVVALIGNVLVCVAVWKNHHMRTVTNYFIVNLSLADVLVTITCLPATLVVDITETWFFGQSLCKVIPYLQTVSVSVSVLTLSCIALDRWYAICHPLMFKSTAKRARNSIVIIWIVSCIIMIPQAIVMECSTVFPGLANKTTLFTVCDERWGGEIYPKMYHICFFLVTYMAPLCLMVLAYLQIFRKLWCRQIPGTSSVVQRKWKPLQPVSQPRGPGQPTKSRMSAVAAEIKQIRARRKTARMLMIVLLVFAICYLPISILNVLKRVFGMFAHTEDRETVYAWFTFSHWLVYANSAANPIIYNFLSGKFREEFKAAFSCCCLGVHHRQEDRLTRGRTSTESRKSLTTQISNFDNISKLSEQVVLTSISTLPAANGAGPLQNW
Regarding `COc1ccc(CNC(=O)c2cc(-c3cncc(Br)c3)nc3onc(-c4ccccc4)c23)nc1OC` [Example 1-8, 6-(5-bromopyridin-3-yl)-N-[(5,6-dimethoxypyridin-2-yl)methyl]-3-phenylisoxazolo[5,4-b] pyridine-4-carboxamide], the Ki was determined as 3.8 nM. Under `COc1ccc(CNC(=O)c2cc(-c3cncc(C)c3)nc3onc(-c4ccccc4)c23)cc1OC` [Example 1-12, N-(3,4-dimethoxybenzyl)-6-(5-methylpyridin-3-yl)-3-phenylisoxazolo[5,4-b]pyridine-4-carboxamide] stands 10.8 nM. Take `COc1cc(C)c(CNC(=O)c2cc(-c3cncc(C)c3)nc3onc(-c4cccs4)c23)nc1OC` [Example 1-21, N-[(5,6-dimethoxy-3-methylpyridin-2-yl)methyl]-6-(5-methylpyridin-3-yl)-3-(thiophen-2-yl)isoxazolo[5,4-b]pyridine-4-carboxamide]: the Ki came out at 0.7 nM.

Source of the values: patent US9242995B2, “Isoxazolopyridine orexin receptor antagonists” (MERCK SHARP & DOHME CORP., priority 2011, dated 2016).
